Measured values published in US5677322A, “Maillard reaction inhibitor” (Otsuka Pharmaceutical Co., Ltd., priority 1993, dated 1997).

test system: Lysozyme; assay: Inhibition of Maillard reaction: suppression of lysozyme dimer formation (lysozyme + fructose, SDS-PAGE); type: biochemical; details: inhibition ratio of test compound to aminoguanidine (positive control); lysozyme 10 mg/ml, fructose 100 mM, 0.2M sodium phosphate pH 7.4, 37° C., 3 days; dimer amount by SDS-PAGE
Procedure: Lysozyme and fructose were dissolved in a buffer solution of 0.2M sodium phosphate (pH 7.4) to respectively give concentrations of 10 mg/ml and 100 mM. After incubating at 37° C. for 3 days, a definite amount of the mixture was taken out and electrophoresed with the use of SDS-PAGE. After the completion of the electrophoresis, the gel was stained with 0.2% Coomassie Brilliant Blue R-250 and the amount of the dimer thus formed was determined.
Each of the test compounds was added before the initiation of the incubation and the effect of suppressing the formation of the dimer was examined at various concentrations, whereby the IC50 value was obtained. As a positive control, aminoguanidine, which is a known glycation inhibitor, was employed and the inhibition ratio of the test compound to aminoguanidine (IC50 of aminoguanidine/IC50 of test compound) was calculated.

| Compound | IC50 of aminoguanidine/IC50 of test compound |
| --- | --- |
| CC(C)=NN=C1NC(=O)C(Cc2ccccc2)N1 (stereo not drawn) [Test compound 3, 5-Benzyl-2-isopropylidenehydrazonoimidazolidin-4-one] | 1.6 |
| CC(C)=NN=C1NC(=O)C(Cc2ccc([N+](=O)[O-])cc2)N1 (stereo not drawn) [Test compound 33, 2-Isopropylidenehydrazono-5-(4-nitrobenzyl)imidazolidin-4-one] | 2.4 |
| CC(C)=NN=C1NC(=O)C(CC(=O)OCc2ccccc2)N1 (stereo not drawn) [Test compound 44, 5-Benzyloxycarbonylmethyl-2-isopropylidenehydrazonoimidazolidin-4-one] | 5.2 |
| 5-[N-(2-carboxymethylphenyl)carbamoylmethyl]-2-isopropylidenehydrazonothiazolidin-4-one [Test compound 108] | 3.2 |
| COC(=O)CC1NC(=NN=C(C)C)NC1=O (stereo not drawn) [Test compound 43, 2-Isopropylidenehydrazono-5-methoxycarbonylmethylimidazolidin-4-one] | 5.4 |
| CC(C)=NN=C1NC(=O)C(CC(=O)NC2CCCCC2)S1 (stereo not drawn) [Test compound 18, 5-(N-cyclohexylcarbamoylmethyl)-2-isopropylidenehydrazonothiazolidin-4-one] | 1.5 |
| 5-(4-Benzyloxybenzyl)-2-isopropylidenehydrazonothiazolidin-4-one [Test compound 12] | 4.4 |
| CC(C)=NN=C1NC(=O)C(Cc2c[nH]c3ccc(O)cc23)N1 (stereo not drawn) [Test compound 41, 5-(5-Hydroxy-3-indolylmethyl)-2-isopropylidenehydrazonoimidazolidin-4-one] | 4.5 |
| 2-Isopropylidenehydrazono-5-[N-(4-methylthiophenyl)carbamoylmethyl]thiazolidin-4-one [Test compound 55] | 5.3 |

Next, values leading:

| IC50 of aminoguanidine/IC50 of test compound | Compound |
| --- | --- |
| 0.3 | CC(C)=NN=C1NC(=O)C(CC(=O)Nc2ccc(OCc3ccccc3)cc2)S1 (stereo not drawn) [Test compound 50, 5-[N-(4-benzyloxyphenyl)carbamoylmethyl]-2-isopropylidenehydrazonothiazolidin-4-one] |
| 2.6 | CC(C)=NN=C1NC(=O)C(CC(C)C)N1 (stereo not drawn) [Test compound 67, 2-Isopropylidenehydrazono-5-(2-methylpropyl)imidazolidin-4-one] |
| 33.7 | COc1ccc(NC(=O)Cc2csc(NN=C(C)C)n2)cc1OC [Test compound 94, 4-[N-(3,4-dimethoxyphenyl)carbamoylmethyl]-2-isopropylidenehydrazinothiazole] |
| 3.1 | 2-Isopropylidenehydrazono-5(S)-(N-phenylcarbamoylmethyl)thiazolidin-4-one [Test compound 110] |
| 5.7 | CC(C)=NN=C1NC(=O)C(CC(=O)Nc2ccccc2)N1 (stereo not drawn) [Test compound 46, 2-Isopropylidenehydrazono-5-(N-phenylcarbamoylmethyl)imidazolidin-4-one] |
| 7.4 | CC(C)=NN=C1NC(=O)C(CC(=O)Nc2ccc(F)c(F)c2)S1 (stereo not drawn) [Test compound 49, 5-[N-(3,4-difluorophenyl)carbamoylmethyl]-2-isopropylidenehydrazonothiazolidin-4-one] |
| 0.7 | CC(C)=NN=C1NC(=O)C(CC(=O)N[C@@H](Cc2c[nH]c3ccccc23)C(=O)O)S1 (stereo partly drawn) [Test compound 104, 5-{N-[1-carboxy-2-(3-indolyl)ethyl]carbamoylmethyl}-2-isopropylidenehydrazonothiazolidin-4-one] |
| 1.5 | CC(C)=NN=C1NC(=O)C(C(C)C)N1 (stereo not drawn) [compound 79] |
| 4.0 | CC(C)=NN=C1NC(=O)C(Cc2c[nH]cn2)N1 (stereo not drawn) [Test compound 78, 5-(4-Imidazolylmethyl)-2-isopropylidenehydrazonoimidazolidin-4-one] |
